Key:
[1] = test system: HL-60 cells; experiment: Antiproliferation activity against tumor cells (MTT, absorbance at 590 nm); assay type: cell-based
Procedure: The Samples 1 to 3 were separately sterilized by filtration and appropriately diluted with sterile water. 10 μl of each dilution was placed in a well of a 96-well microtiter plate. 90 μl of RPMI 1640 medium (Nissui) containing 10% fetal bovine serum (Gibco), which had been treated at 56° C. for 30 minutes, and 5,000 HL-60 cells (ATCC CCL-240) was added thereto. The plate was incubated at 37° C. for 48 hours in the presence of 5% CO2. The cell morphology was examined under an optical microscope. 10 μl of 5 mg/ml 3-(4,5-dimethylthiazol-2-yl)-2,5-diphenyltetrazolium bromide (Sigma) solution in phosphate buffered saline was further added thereto and the incubation was continued for additional 4 hours. 100 μl of 2-propanol containing 0.04 N HCl was added to the well and the mixture was thoroughly stirred. The absorbance at 590 nm was measured to determine the cell growth level.

[2] = test system: α-glucosidase from yeast; experiment: α-Glucosidase inhibition test (yeast enzyme); assay type: biochemical; settings: for Remaining activity: activity without test sample = 100%; for Absorbance (OD 410 nm): without DGE 0.444
Procedure: (1) The activity of inhibiting α-glucosidase of DGE was measured by reacting p-nitrophenyl-α-D-glucopyranoside, a chromogenic substrate for α-glucosidase, with α-glucosidase from yeast and calorimetrically quatifying 4-nitrophnol released by hydrolysis. Briefly, 10 μl of α-glucosidase solution [40 mU/ml, derived from S. cerevisiae, Sigma, dissolved in 10 mM phosphate buffer (pH 7.2 at 37° C.)] and 10 μl of a solution containing a test sample dissolved in 10 mM phosphate buffer (pH 7.2 at 37° C.) were mixed. 80 μl of a 1.5 mg/ml substrate solution [Sigma, dissolved in 10 mM phosphate buffer (pH 7.2 at 37° C.) was added thereto to initiate the reaction. After reacting at 37° C. for 40 minutes, the absorbance at 410 nm was measured (Shimadzu uv2200). The remaining activity therein was calculated defining the activity without the test sample as 100%.

[3] = test system: lipid peroxide radical production; experiment: Lipid peroxide radical production inhibition test; assay type: cell-based, Staphylococcus aureus 3A; settings: for Growth of bacteria: 37° C., 30 minutes
[4] = test system: spleen lymphocytes; experiment: Lymphocyte activation inhibition test; assay type: cell-based, mouse; settings: 3H-thymidine uptake
Source text: A ddY mouse (female, 7 weeks old, weighing about 25 g) was purchased from Nippon SLC and pre-bred for 1 week before using in experiments. A spleen was taken out from the mouse, finely minced and suspended in RPMI-1640 medium containing 10% fetal bovine serum (HyClone) to obtain a single cell suspension. Adhesive cells adhered to a plastic Petri dish were removed and non-adhesive cells were used as spleen lymphocytes. The spleen lymphocytes were suspended in RPMI 1640 medium containing 10% fetal bovine serum at a concentration of 2×10^6/ml. 200 μl of the suspension was seeded into each well of a 96-well microtiter plate. DGE at a varying concentration was added to each well other than the control well. Furthermore, 5 μg of Con A (Nacalai Tesque) was added to each well. The plate was incubated at 37° C. for two days in the presence of 5% CO2. 37 kBq of ^3H-thymidine (Daiichi Pure Chemicals) was added to each well to pulse-label the cells on the day before the completion of the cultivation. After cultivation, the cells were harvested on a glass filter to measure the radioactivity.

[5] = molecular target: T1, α-glucosidase from rat small intestine mucous membrane (Rattus norvegicus, UniProt P23739); experiment: α-Glucosidase inhibition test (crude enzyme from rat small intestine); assay type: biochemical; settings: for relative activity: substrate Sucrose, control without DGE = 100%
T1 construct: relative activity; other: substrate Sucrose, DGE 0.2 mM; control without DGE = 100%; relative activity; other: substrate Sucrose, DGE 0.5 mM; other: substrate Sucrose, DGE 1.0 mM; other: substrate Sucrose, DGE 2.0 mM; other: for sucrose, Dixon
Procedure: (2) A crude enzyme preparation of α-glucosidase from rat small intestine mucous membrane [prepared according to the method as described in Arne Dahlqvist, Anal. Biochem., 7:18-25 (1964)] was used to measure the activity of inhibiting α-glucosidase of DGE as follows.
For the enzymatic reaction, 80 μl of a solution of sucrose, maltose, treharose or soluble starch as a substrate in 10 mM phosphate buffer (pH 7.0) buffer at a final concentration of 100 mM (0.5% for soluble starch) was added to 10 μl of a test sample solution appropriately diluted with the same buffer. 10 μl of the crude enzyme solution prepared from rat small intestine was added thereto. The mixture was reacted at 37° C. for 20 minutes.
The enzymatic reaction was assessed by adding 3 ml of a reagent for glucose measurement (Wako Pure Chemical Industries) to the reaction mixture, reacting at 37° C. for 5 minutes and then measuring the absorbance at 505 nm as the glucose content in the mixture.
The inhibitory activity of DGE on the digestion of each substrate by α-glycosidase was measured using DGE at four different concentrations according to the above-mentioned method. The activity of inhibiting α-glycosidase was expressed as a relative activity (%) defining the activity of the control without DGE as 100%.

[6] = test system: inducible NO synthase (iNOS); experiment: iNOS expression (RT-PCR, Western blotting); assay type: cell-based; settings: RAW264.7 cells cultured for 4, 6 or 8 hours
Procedure: The present inventors have confirmed that the compound of formula (I), the compound of formula (II) and salts thereof inhibit the expression of iNOS. The confirmation was carried out at protein level by using Western blotting and at messenger RNA level by using RT-PCR. […] Therefore, the compound is effective in treating and preventing diseases that require inhibition of NO production for their treatment and prevention.
RNA was prepared from RAW264.7 cells cultured for 4, 6 or 8 hours under conditions similar to those described above. The amount of mRNA encoding inducible NO synthase [iNOS; Biochem. Byophys. Res. Commun., 215:148-153 (1995)] contained in the RNA was determined by the RT-PCR method.

T1 sequence (P23739 whole entry): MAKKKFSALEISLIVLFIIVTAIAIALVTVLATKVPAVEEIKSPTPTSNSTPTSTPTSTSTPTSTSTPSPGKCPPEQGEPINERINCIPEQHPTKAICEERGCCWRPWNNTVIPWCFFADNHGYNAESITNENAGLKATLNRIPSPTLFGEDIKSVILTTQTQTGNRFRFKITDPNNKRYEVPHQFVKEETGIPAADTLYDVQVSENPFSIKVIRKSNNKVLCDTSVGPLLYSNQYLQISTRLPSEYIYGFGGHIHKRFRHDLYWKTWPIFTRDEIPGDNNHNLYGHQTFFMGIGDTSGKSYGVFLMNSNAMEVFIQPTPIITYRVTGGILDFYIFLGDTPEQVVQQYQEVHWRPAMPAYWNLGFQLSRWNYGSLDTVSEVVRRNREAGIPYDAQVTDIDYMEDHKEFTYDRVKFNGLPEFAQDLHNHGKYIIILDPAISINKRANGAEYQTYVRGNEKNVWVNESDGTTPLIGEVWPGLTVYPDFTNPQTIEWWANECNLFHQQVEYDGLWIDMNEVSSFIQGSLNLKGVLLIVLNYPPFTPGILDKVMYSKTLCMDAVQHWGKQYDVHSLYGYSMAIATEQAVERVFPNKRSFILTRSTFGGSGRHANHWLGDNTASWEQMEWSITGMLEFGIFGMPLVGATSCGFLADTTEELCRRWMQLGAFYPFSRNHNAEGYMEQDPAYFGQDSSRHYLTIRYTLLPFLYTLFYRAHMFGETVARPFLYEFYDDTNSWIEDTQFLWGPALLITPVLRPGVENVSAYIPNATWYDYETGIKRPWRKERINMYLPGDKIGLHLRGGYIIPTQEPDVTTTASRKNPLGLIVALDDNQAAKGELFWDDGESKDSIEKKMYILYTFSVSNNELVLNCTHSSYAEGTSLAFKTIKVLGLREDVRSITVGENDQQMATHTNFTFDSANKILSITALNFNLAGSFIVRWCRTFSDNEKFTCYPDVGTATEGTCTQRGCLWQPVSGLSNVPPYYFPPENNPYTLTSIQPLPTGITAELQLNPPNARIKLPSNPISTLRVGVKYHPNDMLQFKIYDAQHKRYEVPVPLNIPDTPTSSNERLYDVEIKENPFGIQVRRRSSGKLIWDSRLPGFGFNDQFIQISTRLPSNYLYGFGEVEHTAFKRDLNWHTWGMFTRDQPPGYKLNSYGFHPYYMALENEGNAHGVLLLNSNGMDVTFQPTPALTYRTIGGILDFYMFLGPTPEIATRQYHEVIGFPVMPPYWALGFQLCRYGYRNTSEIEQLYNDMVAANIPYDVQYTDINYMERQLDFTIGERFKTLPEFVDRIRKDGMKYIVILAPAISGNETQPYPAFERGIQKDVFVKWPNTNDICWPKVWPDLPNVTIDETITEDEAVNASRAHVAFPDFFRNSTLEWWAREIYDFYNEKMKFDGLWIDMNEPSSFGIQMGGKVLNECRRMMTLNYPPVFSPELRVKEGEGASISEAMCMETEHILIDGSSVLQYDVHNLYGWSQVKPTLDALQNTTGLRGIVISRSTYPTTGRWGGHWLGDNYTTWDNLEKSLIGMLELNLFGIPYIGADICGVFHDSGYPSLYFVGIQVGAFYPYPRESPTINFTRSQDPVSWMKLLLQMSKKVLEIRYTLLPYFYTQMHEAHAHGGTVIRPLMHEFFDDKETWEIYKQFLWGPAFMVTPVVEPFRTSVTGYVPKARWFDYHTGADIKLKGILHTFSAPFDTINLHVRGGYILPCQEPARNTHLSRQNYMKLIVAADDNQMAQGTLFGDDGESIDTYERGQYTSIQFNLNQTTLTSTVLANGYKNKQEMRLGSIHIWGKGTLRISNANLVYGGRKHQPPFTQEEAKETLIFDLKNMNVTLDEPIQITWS

5-L-glutathion-S-yl-2-hydroxy-3,7-dioxabicyclo[2.2.2]octan-1-ol [DGE-GSH]
antiproliferation activity against tumor cells ([1]; 48 hours, absorbance at 590 nm): inhibition of cell growth | GI50, the concentration that results in 50% growth inhibition ([1]; half absorbance at 590 nm compared with water control): about 48.7 μg/ml | formation of apoptotic bodies ([1]; optical microscope): apoptotic bodies were observed

O=C1C=CC(CO)OC1O [DGE, L-glycero-1,5-epoxy-1αβ,6-dihydroxy-cis-hex-3-en-2-one]
Remaining activity ([2]; DGE added 5 μM): 98% | Absorbance (OD 410 nm) ([2]; DGE added 5 μM): 0.433 | Remaining activity ([2]; DGE added 50 μM): 90% | Absorbance (OD 410 nm) ([2]; DGE added 50 μM): 0.401 | Remaining activity ([2]; DGE added 500 μM): 50% | Absorbance (OD 410 nm) ([2]; DGE added 500 μM): 0.221 | Remaining activity ([2]; DGE added 1000 μM): 26% | Absorbance (OD 410 nm) ([2]; DGE added 1000 μM): 0.114 | Remaining activity ([2]; DGE added 5000 μM): 19% | Absorbance (OD 410 nm) ([2]; DGE added 5000 μM): 0.083 | IC50 ([2]; substrate p-nitrophenyl-α-D-glucopyranoside, read-out: concentration of DGE that inhibits α-glucosidase activity by 50% (IC50)): 0.5 mM | activity of inhibiting lipid peroxide radical production [3]: exhibited an activity of inhibiting lipid peroxide radical production | Growth of bacteria ([3]; DGE 1 mM in the reaction mixture with tert-butyl hydroperoxide): − | Growth of bacteria ([3]; DGE 10 mN in the reaction mixture with tert-butyl hydroperoxide): + | inhibitory activity against lymphocyte proliferation activated by stimulation with mitogen ([4]; Con A): in a dose-dependent manner | concentration that almost completely inhibits the proliferation ([4]; Con A-stimulated spleen lymphocytes): 0.3 µg/mL | activity of inhibiting α-glycosidase with sucrose as a substrate compared with maltose or the like [5]: exhibited a higher activity of inhibiting α-glycosidase | Ki ([5]; for sucrose, Dixon plot, read-out: inhibition constant (Ki)): 6 mM | relative activity ([5]; DGE 0.2 mM): 91% | relative activity ([5]; DGE 0.5 mM): 92% | relative activity ([5]; DGE 1.0 mM): 83% | relative activity ([5]; DGE 2.0 mM): 71% | amplification of a DNA fragment from the iNOS mRNA [6]: no amplification of the fragment was observed
